Values after ≈ are worked out from the molar mass of the structure shown.
Conditions: buffer; pH 7.4; 6.0 h; 150.0 µM
Work on `CCOc1ccc(CCNC(=O)c2ccc(Oc3ccccc3)cc2)cc1OCC` yielded a solubility kinetic of under 1 µg/mL. For `COc1ccc(-c2cc(C)nc3c(-c4ccc(OC)c(OC)c4)c(C)nn23)cc1`, the solubility kinetic was under 1 µg/mL. Compound `O=S(=O)(Nc1nccs1)c1ccc(NCc2ccc(Cl)cc2O)cc1` has a solubility kinetic of 1.32 µg/mL (≈ 3.34 µM). Work on `O=C1Nc2cc(Cl)ccc2Nc2cscc21` yielded a solubility kinetic of 9.92 µg/mL (≈ 39.6 µM). `CCOc1ccc(C2C(C(=O)Nc3ccccc3OC)=C(C)Nc3c(C(=O)Nc4cccc(C)c4)cnn32)cc1` (centres undefined) gave a solubility kinetic of under 1 µg/mL. In the case of `Cc1cc(Br)ccc1NC(=O)C(NS(=O)(=O)c1cccs1)c1ccccc1` (centres undefined), the solubility kinetic is reported as under 1 µg/mL. `CCOc1ccc(N2CC(c3nc(-c4ccccn4)no3)CC2=O)cc1` (centres undefined) gave a solubility kinetic of over 35 µg/mL. For `O=C(/C=C/c1cn(CC(O)CN2CCCCCC2)c2ccccc12)c1ccc(Br)cc1` (centres undefined), the solubility kinetic was under 1 µg/mL. Compound `COc1cccc(CNc2ccc(S(=O)(=O)Nc3cccc(-c4ccccc4)c3)cc2)c1O` has a solubility kinetic of under 1 µg/mL. With `Fc1cc(Nc2nc(-c3ccncc3)nc3ccccc23)ccc1OCC(F)(F)F` the solubility kinetic was under 1 µg/mL. For `CCN(CC)CCCCNc1ncc2cc(-c3c(Cl)cccc3Cl)c(NC(=O)NC(C)(C)C)nc2n1`, the solubility kinetic was 34.7 µg/mL (≈ 65.2 µM). With `CCN1C(=O)c2ccccc2[S@](=O)c2ccc(C(=O)NCc3ccc(F)cc3)cc21` the solubility kinetic was 18.1 µg/mL (≈ 42.9 µM). `Cc1ccc(CN2CCOC[C@H]2c2ncc(-c3cccc(F)c3)[nH]2)cc1` gave a solubility kinetic of 10.4 µg/mL (≈ 29.7 µM). With `Cc1cccc(C(=O)N2CCc3cc(-c4nc(NC(=O)Cc5ccc6c(c5)OCO6)sc4C)ccc32)c1` the solubility kinetic was 4.07 µg/mL (≈ 7.96 µM). `C[C@H]1CN(C(=O)Nc2ccc(F)cc2F)C[C@@H]1c1nc(-c2ccccc2)no1` showed a solubility kinetic of 19.3 µg/mL (≈ 50.3 µM). `Nc1ncc(S(=O)(=O)N2CCOCC2)s1` gave a solubility kinetic of over 37 µg/mL. With `O=C(O)C1CCN(c2ncc(-c3ccc4c(c3)OCCCO4)s2)CC1` the solubility kinetic was over 53 µg/mL. In the case of `CC1CCc2cc(F)ccc2N1C(=O)CSc1nnc2c(n1)[nH]c1ccccc12` (centres undefined), the solubility kinetic is reported as under 1 µg/mL. `CCOC(=O)c1ccc(NC(=O)c2sc3nc4c(cc3c2N)N2CCC4CC2)cc1` gave a solubility kinetic of under 1 µg/mL. `Cn1cc(S(=O)(=O)N2CCOCC2)cc1C(=O)Nc1ccc(Cl)c(C(F)(F)F)c1` showed a solubility kinetic of under 1 µg/mL. `Nc1ccc(CNc2ccc([S+](=O)([O-])Nc3nccs3)cc2)c(O)c1` showed a solubility kinetic of 45.7 µg/mL (≈ 121 µM). In the case of `CC(=O)C1CCN(c2ncc(-c3cccc(N(C)C)c3)s2)CC1`, the solubility kinetic is reported as 3.33 µg/mL (≈ 10.1 µM). For `COc1ccc(-c2nc(N3CCOCC3)c3sc(CN(C)c4ncc(C(=O)NO)cn4)cc3n2)cn1`, the solubility kinetic was 5.56 µg/mL (≈ 10.9 µM). For `COc1ccc(CNc2ccc(S(=O)(=O)Nc3nccs3)cc2)cc1O`, the solubility kinetic was 7.85 µg/mL (≈ 20.1 µM). `c1ccc2c(Nc3nccs3)nc(-c3ccncc3)nc2c1` gave a solubility kinetic of under 1 µg/mL. `CCCn1cnc2cc(NCc3ccc(OC)cc3OC)ccc21` showed a solubility kinetic of 40.3 µg/mL (≈ 124 µM). Compound `O=C1CCCC2=C1C1(CCSCC1)N=C(Nc1nc3ccccc3o1)N2` has a solubility kinetic of under 1 µg/mL. Work on `Fc1cccc(CN2CCNc3cc(Nc4ccccc4)ncc3C2)c1` yielded a solubility kinetic of 27.3 µg/mL (≈ 78.3 µM). Compound `COc1ccc2cc1Oc1ccc(cc1)C[C@@H]1c3c(cc(OC)c4c3Oc3cc5c(cc3O4)CCN[C@H]5C2)CCN1C` has a solubility kinetic of under 1 µg/mL. `Fc1cc(Nc2nc(-c3ccncc3)nc3ccccc23)ccc1-c1cn[nH]c1` gave a solubility kinetic of under 1 µg/mL. For `CCOc1ccc(CCNC(=O)c2cc3ccccc3o2)cc1OCC`, the solubility kinetic was 8.88 µg/mL (≈ 25.1 µM). With `Cc1nc(NCc2ccco2)nc2c1C(=O)CC(C)C2` (centres undefined) the solubility kinetic was over 40 µg/mL. For `Cc1cc(NS(=O)(=O)c2ccc(NC(=O)c3oc4ccccc4c3C)cc2)nc(C)n1`, the solubility kinetic was under 1 µg/mL. With `CN1CCN(C(c2ccccc2)c2ccccc2)CC1` the solubility kinetic was over 39 µg/mL. In the case of `COC1C(OC(=O)c2ccc(C)[nH]2)C(O)C(Oc2ccc3c(O)c(NC(=O)c4ccc(O)c(CC=C(C)C)c4)c(=O)oc3c2Cl)OC1(C)C` (centres undefined), the solubility kinetic is reported as over 100 µg/mL. `CCCCC(C)/C=C(C)/C=C(\C)C(=O)NC1=CC(O)(/C=C/C=C/C=C/C(=O)NC2=C(O)CCC2=O)C2OC2C1=O` (centres undefined) showed a solubility kinetic of over 81 µg/mL. Compound `COc1cc2c(cc1NC(=O)COc1ccc(Cl)cc1)oc1ccccc12` has a solubility kinetic of under 1 µg/mL. `COc1ccc(OC)c(-c2cc(C(=O)N3CCN(c4ncccn4)CC3)c3ccccc3n2)c1` showed a solubility kinetic of 24.5 µg/mL (≈ 53.7 µM). In the case of `COc1ccc(-n2nc(C3CCN([S+](=O)([O-])c4cccc(C(F)(F)F)c4)CC3)[nH]c2=O)cc1`, the solubility kinetic is reported as under 1 µg/mL. Compound `NC(=O)C1CCN(c2nc(-c3ccc4c(c3)OCCCO4)cs2)CC1` has a solubility kinetic of 34.7 µg/mL (≈ 96.4 µM). Compound `Cc1nn2c(c1-c1ccccc1Oc1ccccc1)N(Cc1ccccc1O)CCC2` has a solubility kinetic of 13.9 µg/mL (≈ 33.8 µM). Compound `CN1CCN(c2cc(-c3nc(Nc4ccc(F)c(F)c4)c4ccccc4n3)ccn2)CC1` has a solubility kinetic of under 1 µg/mL. Work on `Cc1c(C(=O)OCCOc2ccccc2)[nH]c2c1C(=O)CC(c1ccccc1)C2` (centres undefined) yielded a solubility kinetic of under 1 µg/mL. In the case of `CC(C)Oc1ccc(CCNC(=O)c2cc3sccc3n2Cc2ccccc2)cc1OC(C)C`, the solubility kinetic is reported as under 1 µg/mL. Compound `O=C(O)c1ccc(N2C(=O)/C(=C/c3ccc(-c4ccc([N+](=O)[O-])cc4)o3)C=C2c2ccccc2)cc1` has a solubility kinetic of 31.4 µg/mL (≈ 65.6 µM). In the case of `COc1cc(Nc2nc(-c3ccncc3)nc3ccccc23)ccc1F`, the solubility kinetic is reported as under 1 µg/mL. `Cc1sc(NC(=O)Cc2ccc3c(c2)OCO3)nc1-c1ccc2c(c1)CCN2C(=O)C1CCCCC1` gave a solubility kinetic of under 1 µg/mL. Work on `Cc1ccc(S(=O)(=O)Nc2ccc(OC(F)(F)F)cc2C(=O)Nc2nc(-c3ccccc3)cs2)cc1` yielded a solubility kinetic of under 1 µg/mL. With `CC(C)NC(=O)C1CCN(C(=O)c2cc3sccc3n2Cc2ccc(Cl)cc2)CC1` the solubility kinetic was under 1 µg/mL. In the case of `CC(=O)c1c(C)c2cnc(Nc3ccc(N4CCNCC4)cn3)nc2n(C2CCCC2)c1=O`, the solubility kinetic is reported as 17.4 µg/mL (≈ 39 µM). `C[C@@]1(C(=O)Nc2ccc(F)nc2)CCCN1c1nc(Nc2cc(C3CC3)[nH]n2)c2cccn2n1` gave a solubility kinetic of 31.1 µg/mL (≈ 67.4 µM). Work on `COc1ccc(NC(=O)c2[nH]c(C)cc2C)cc1S(=O)(=O)Nc1ccc(Br)cc1` yielded a solubility kinetic of under 1 µg/mL. Work on `COC(=O)Nc1nc2ccc(Sc3ccccc3)cc2[nH]1` yielded a solubility kinetic of under 1 µg/mL. For `Fc1cc(Nc2nc(-c3ccncc3)nc3ccccc23)ccc1-c1ccc2[nH]ncc2c1`, the solubility kinetic was under 1 µg/mL. `NC(=O)Nc1cc(-c2ccc(CN3CCOCC3)cc2)sc1C(N)=O` gave a solubility kinetic of 14.3 µg/mL (≈ 39.6 µM). With `Cc1ccccc1C(=O)N1CCc2cc(-c3nc(NC(=O)CC4CCCCC4)sc3C)ccc21` the solubility kinetic was under 1 µg/mL. `CCC(C)N(C)C(=O)c1cc2ccccc2c(-c2ccccc2Cl)n1` (centres undefined) gave a solubility kinetic of 38.6 µg/mL (≈ 109 µM). Compound `O=C(Cc1n[nH]c(=O)c2ccccc12)NC1CCCc2c1[nH]c1c(Cl)cccc21` (centres undefined) has a solubility kinetic of under 1 µg/mL. Compound `O=C(NCc1ccco1)c1nc2nc(-c3cccs3)cc(C(F)(F)F)n2n1` has a solubility kinetic of 4.51 µg/mL (≈ 11.5 µM). Work on `NS(=O)(=O)c1ccc(NC(=O)c2cc3ncccn3n2)cc1` yielded a solubility kinetic of 5.17 µg/mL (≈ 16.3 µM). Compound `COc1ccc(-c2ccc3nc(-c4ccc(SC)cc4)oc3c2)c(OC)c1OC` has a solubility kinetic of under 1 µg/mL. In the case of `Cc1ccccc1C(=O)N1CCc2cc(-c3nc(NC(=O)c4ccc5c(c4)OCO5)sc3C)ccc21`, the solubility kinetic is reported as under 1 µg/mL. In the case of `Cc1ccc(S(=O)(=O)Nc2cnccc2C(=O)Nc2nc(-c3ccc(-c4ccccc4)cc3)cs2)cc1`, the solubility kinetic is reported as 0.487 µg/mL (≈ 0.925 µM). `COc1cccc(-c2nc(-c3cc4cc(OC)ccc4[nH]c3=O)no2)c1` showed a solubility kinetic of under 1 µg/mL. Compound `CCOC(=O)C1(Cc2ccccc2C(F)(F)F)CCN(C2CCN(C(C)C)CC2)CC1` has a solubility kinetic of 55 µg/mL (≈ 125 µM). In the case of `CCCSc1nc(N[C@@H]2C[C@H]2c2ccc(F)c(F)c2)c2nnn([C@@H]3C[C@H](OCCO)[C@@H](O)[C@H]3O)c2n1`, the solubility kinetic is reported as under 1 µg/mL. Work on `Cc1sc(NC(=O)Cc2ccc3c(c2)OCO3)nc1-c1ccc2c(c1)CCN2C` yielded a solubility kinetic of 1.07 µg/mL (≈ 2.63 µM). With `CCN(CC)CCOc1ccc2c(=O)c3ccc(Cl)cc3n(CCN(CC)CC)c2c1` the solubility kinetic was over 66 µg/mL. `O=C1CCCC2=C1C(c1[nH]ncc1Cl)N=C(Nc1nc3cc([S+](=O)([O-])N4CCCC4)ccc3o1)N2` (centres undefined) gave a solubility kinetic of 36.2 µg/mL (≈ 70.2 µM).

Reference: PubChem BioAssay AID1645848
